Results: ChEMBL document CHEMBL1201862, “PubChem BioAssay data set” (2004)
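Exposure lasted 48 hours, with cells grown in 96-well plates and compounds tested at five concentrations. GI50 is the concentration that inhibits growth by half.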 Calls of active or inactive are those of the source. Cut-off read from the data, not from the text of the source: active = GI50 up to about 1.1 µM and inactive = higher.

Key:
Assay in all cases: NCI-60 cell line screen, 48 h
[1] = system: M19-MEL
[2] = system: SF-539
[3] = system: U-251
[4] = system: NCI-H460
[5] = system: HOP-92
[6] = system: LOX IMVI
[7] = system: TK-10
[8] = system: HCT-15
[9] = system: SW-620
[10] = system: NCI-H522
[11] = system: SNB-19
[12] = system: MOLT-4
[13] = system: HOP-62
[14] = system: SN12C
[15] = system: MDA-MB-231
[16] = system: PC-3
[17] = system: MDA-MB-435
[18] = system: BT-549
[19] = system: MCF7
[20] = system: SK-MEL-2

SMILES	GI50 [1]	GI50 [2]	GI50 [3]	GI50 [4]	GI50 [5]	GI50 [6]	GI50 [7]	GI50 [8] [µM]	GI50 [9]	GI50 [10]	GI50 [11]	GI50 [12]	GI50 [13]	GI50 [14]	GI50 [15]	GI50 [16]	GI50 [17]	GI50 [18]	GI50 [19]	GI50 [20]
O=C(Nc1ccccc1)n1cc(-c2ccccn2)c(N2CCOCC2)n1	6.61 µM (inactive)	6.73 µM (inactive)	4.94 µM (inactive)	4.19 µM (inactive)	16.9 µM (inactive)	5.75 µM (inactive)	> 100 µM (inactive)	4.47	5.85 µM (inactive)	2.56 µM (inactive)	9.57 µM (inactive)	4.15 µM (inactive)	6.59 µM (inactive)	35.2 µM (inactive)	–	–	–	–	–	–
COc1ccccc1/N=N/c1c(-c2ccccc2)nn(C(=O)CC(=O)Nc2cccc(C)c2)c1-c1ccccc1	35.8 µM (inactive)	30 µM (inactive)	20 µM (inactive)	27.2 µM (inactive)	–	27.5 µM (inactive)	72.1 µM (inactive)	21.1	41.3 µM (inactive)	16.4 µM (inactive)	27.2 µM (inactive)	10.7 µM (inactive)	19.1 µM (inactive)	20.8 µM (inactive)	–	–	–	–	–	–
Cc1ccc(CNNC(=O)c2cc[n+]([BH2-]C#N)cc2)cc1	–	> 100 µM (inactive)	> 100 µM (inactive)	> 100 µM (inactive)	> 100 µM (inactive)	> 100 µM (inactive)	> 100 µM (inactive)	> 100	> 100 µM (inactive)	95.5 µM (inactive)	> 100 µM (inactive)	71.3 µM (inactive)	> 100 µM (inactive)	> 100 µM (inactive)	99.3 µM (inactive)	84.9 µM (inactive)	> 100 µM (inactive)	> 100 µM (inactive)	18.1 µM (inactive)	> 100 µM (inactive)
Cc1ccc(N/C(Sc2ccccc2)=C(/C(Cl)=C(Cl)Cl)[N+](=O)[O-])c(C)c1	–	21.7 µM (inactive)	13.8 µM (inactive)	16.8 µM (inactive)	14 µM (inactive)	14.5 µM (inactive)	45.6 µM (inactive)	16.8	19.7 µM (inactive)	17.8 µM (inactive)	22.3 µM (inactive)	19.6 µM (inactive)	23.8 µM (inactive)	18.4 µM (inactive)	18.9 µM (inactive)	17.7 µM (inactive)	14.4 µM (inactive)	15.5 µM (inactive)	14.4 µM (inactive)	19.5 µM (inactive)
